Results from PubChem BioAssay (NCI).
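A five-concentration, 48-hour dose response in 96-well plates underlies each endpoint, interpolated linearly between surrounding concentrations. GI50 = concentration required for 50% inhibition of growth. TGI: concentration producing complete growth inhibition.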

Key:
Assay in all cases: DTP human tumour cell line panel, 48 h
[1] = test system: CCRF-CEM leukemia
[2] = test system: LOX IMVI melanoma
[3] = test system: SK-MEL-28 melanoma
[4] = test system: HS 578T breast
[5] = test system: A498 renal
[6] = test system: OVCAR-5 ovarian
[7] = test system: T-47D breast
[8] = test system: SF-539 CNS
[9] = test system: MCF7 breast
[10] = test system: DU-145 prostate
[11] = test system: SN12C renal
[12] = test system: HOP-92 NSCLC
[13] = test system: HOP-62 NSCLC
[14] = test system: SK-OV-3 ovarian
[15] = test system: COLO 205 colon
[16] = test system: HCT-116 colon
[17] = test system: A549 NSCLC
[18] = test system: HCT-15 colon
[19] = test system: SNB-19 CNS
[20] = test system: M14 melanoma
[21] = test system: PC-3 prostate
[22] = test system: 786-0 renal
[23] = test system: OVCAR-4 ovarian
[24] = test system: HL-60(TB) leukemia
[25] = test system: K-562 leukemia
[26] = test system: IGROV1 ovarian
[27] = test system: MDA-MB-435
[28] = test system: EKVX NSCLC
[29] = test system: UO-31 renal
[30] = test system: KM12 colon
[31] = test system: HCC-2998 colon
[32] = test system: RXF 393 renal
[33] = test system: HT29 colon
[34] = test system: SK-MEL-5 melanoma
[35] = test system: RPMI-8226 leukemia
[36] = test system: MDA-MB-231 breast
[37] = test system: MDA-MB-468 breast
[38] = test system: SNB-75 CNS
[39] = test system: UACC-62 melanoma
[40] = test system: OVCAR-8 ovarian
[41] = test system: TK-10 renal
[42] = test system: SK-MEL-2 melanoma
[43] = test system: NCI-H226 lung
[44] = test system: MALME-3M melanoma
[45] = test system: SF-295 CNS
[46] = test system: ACHN renal
[47] = test system: SF-268 CNS
[48] = test system: CAKI-1 renal
[49] = test system: NCI/ADR-RES ovarian
[50] = test system: MOLT-4 leukemia
[51] = test system: UACC-257 melanoma
[52] = test system: U251 CNS
[53] = test system: NCI-H23 lung
[54] = test system: OVCAR-3 ovarian
[55] = test system: BT-549 breast
[56] = test system: SW-620 colon
[57] = test system: NCI-H522 lung
[58] = test system: SR leukemia
[59] = test system: NCI-H460 lung

Nc1cc(-c2c[nH]c3ccc(Cl)cc23)nc2cc(-c3c[nH]c4ccccc34)nn12
GI50 [1]: 2.99 µM
TGI [1]: 9.39 µM
GI50 [2]: 1.75 µM
TGI [2]: 3.22 µM
GI50 [3]: 1.87 µM
TGI [3]: 4.23 µM
GI50 [4]: 3.25 µM
TGI [4]: 16.4 µM
GI50 [5]: 2.09 µM
TGI [5]: 7.69 µM
GI50 [6]: 1.9 µM
TGI [6]: 4.32 µM
GI50 [7]: 2.61 µM
GI50 [8]: 1.81 µM
TGI [8]: 3.47 µM
GI50 [9]: 1.83 µM
TGI [9]: 3.96 µM
GI50 [10]: 3.56 µM
TGI [10]: 12.9 µM
GI50 [11]: 3.63 µM
TGI [11]: 14.3 µM
GI50 [12]: 2.1 µM
TGI [12]: 5.65 µM
GI50 [13]: 3.1 µM
TGI [13]: 10.7 µM
GI50 [14]: 6.25 µM
TGI [14]: 20 µM
GI50 [15]: 1.75 µM
TGI [15]: 3.6 µM
GI50 [16]: 1.67 µM
TGI [16]: 3.12 µM
GI50 [17]: 2.76 µM
TGI [17]: 12.1 µM
GI50 [18]: 1.61 µM
TGI [18]: 3.24 µM
GI50 [19]: 2.95 µM
TGI [19]: 10.7 µM
GI50 [20]: 1.85 µM
TGI [20]: 4.17 µM
GI50 [21]: 2.59 µM
TGI [21]: 7.89 µM
GI50 [22]: 1.67 µM
TGI [22]: 3.67 µM
GI50 [23]: 3.65 µM
TGI [23]: 17.1 µM
GI50 [24]: 2.09 µM
TGI [24]: 7.43 µM
GI50 [25]: 2.15 µM
TGI [25]: 5.7 µM
GI50 [26]: 3.34 µM
TGI [26]: 12.7 µM
GI50 [27]: 2.42 µM
TGI [27]: 7.27 µM
GI50 [28]: 2.44 µM
TGI [28]: 8.51 µM
GI50 [29]: 2.59 µM
TGI [29]: 10.4 µM
GI50 [30]: 2.02 µM
TGI [30]: 4.27 µM
GI50 [31]: 1.86 µM
TGI [31]: 3.6 µM
GI50 [32]: 2.23 µM
TGI [32]: 6.61 µM
GI50 [33]: 2.04 µM
TGI [33]: 4.62 µM
GI50 [34]: 2.05 µM
TGI [34]: 4.42 µM
GI50 [35]: 2.29 µM
TGI [35]: 6.98 µM
GI50 [36]: 1.96 µM
TGI [36]: 3.6 µM
GI50 [37]: 1.45 µM
TGI [37]: 3.2 µM
GI50 [38]: 1.71 µM
TGI [38]: 9.69 µM
GI50 [39]: 1.72 µM
TGI [39]: 3.55 µM
GI50 [40]: 3.19 µM
TGI [40]: 17.3 µM
GI50 [41]: 2.9 µM
TGI [41]: 13.3 µM
GI50 [42]: 2.28 µM
TGI [42]: 6.05 µM
GI50 [43]: 3.52 µM
TGI [43]: 28 µM
GI50 [44]: 1.78 µM
TGI [44]: 3.23 µM
GI50 [45]: 1.81 µM
TGI [45]: 3.61 µM
GI50 [46]: 2.76 µM
TGI [46]: 7.77 µM
GI50 [47]: 2.75 µM
TGI [47]: 12.7 µM
GI50 [48]: 1.99 µM
TGI [48]: 5.28 µM
GI50 [49]: 3.45 µM
TGI [49]: 14.7 µM
GI50 [50]: 1.86 µM
TGI [50]: 5.04 µM
GI50 [51]: 2.99 µM
TGI [51]: 12.2 µM
GI50 [52]: 1.8 µM
TGI [52]: 4.22 µM
GI50 [53]: 2.23 µM
TGI [53]: 5.5 µM
GI50 [54]: 2.9 µM
TGI [54]: 10.5 µM
GI50 [55]: 4.98 µM
TGI [55]: 17.9 µM

COc1ccc(-c2nc(S(=O)(=O)c3ccc(C)cc3)c(S(C)(=O)=O)o2)cc1
GI50 [1]: 2.38 µM
TGI [1]: 6.43 µM
GI50 [2]: 1.56 µM
TGI [2]: 2.96 µM
GI50 [3]: 3.2 µM
TGI [3]: 11 µM
GI50 [4]: 5.35 µM
TGI [4]: 34 µM
GI50 [5]: 14.3 µM
TGI [5]: 27.4 µM
GI50 [6]: 10.9 µM
TGI [6]: 23.1 µM
GI50 [7]: 2.03 µM
TGI [7]: 4.55 µM
GI50 [8]: 1.83 µM
TGI [8]: 3.8 µM
GI50 [9]: 2.14 µM
TGI [9]: 6.1 µM
GI50 [10]: 2.57 µM
TGI [10]: 6.82 µM
GI50 [11]: 4.94 µM
TGI [11]: 17.6 µM
GI50 [12]: 3.03 µM
TGI [12]: 11.6 µM
GI50 [13]: 20.2 µM
TGI [13]: 40 µM
GI50 [14]: 18.5 µM
TGI [14]: 35.1 µM
GI50 [15]: 2.21 µM
TGI [15]: 4.95 µM
GI50 [16]: 1.78 µM
TGI [16]: 3.34 µM
GI50 [17]: 18.9 µM
TGI [17]: 39.4 µM
GI50 [18]: 1.96 µM
TGI [18]: 4.2 µM
GI50 [19]: 15.1 µM
TGI [19]: 28.3 µM
GI50 [56]: 1.66 µM
TGI [56]: 3.32 µM
GI50 [20]: 1.95 µM
TGI [20]: 4.59 µM
GI50 [21]: 11.1 µM
TGI [21]: 25.6 µM
GI50 [22]: 1.64 µM
TGI [22]: 3.47 µM
GI50 [23]: 3.1 µM
TGI [23]: 11.1 µM
GI50 [24]: 1.8 µM
TGI [24]: 6.14 µM
GI50 [25]: 2.91 µM
TGI [25]: > 100 µM
GI50 [57]: 1.66 µM
TGI [57]: 3.28 µM
GI50 [26]: 7.16 µM
TGI [26]: 20.4 µM
GI50 [27]: 5.3 µM
TGI [27]: 19.6 µM
GI50 [28]: 11 µM
TGI [28]: 25.4 µM
GI50 [29]: 3.43 µM
TGI [29]: 15.3 µM
GI50 [30]: 16.2 µM
TGI [30]: 32.2 µM
GI50 [31]: 7.61 µM
TGI [31]: 21.1 µM
GI50 [32]: 1.47 µM
TGI [32]: 2.94 µM
GI50 [58]: 2.83 µM
TGI [58]: > 100 µM
GI50 [33]: 2.09 µM
TGI [33]: 4.37 µM
GI50 [34]: 12.8 µM
TGI [34]: 26.2 µM
GI50 [35]: 3.05 µM
TGI [35]: 17.3 µM
GI50 [36]: 1.73 µM
TGI [36]: 3.35 µM
GI50 [37]: 1.6 µM
TGI [37]: 3.23 µM
GI50 [38]: 11.3 µM
TGI [38]: 23.7 µM
GI50 [39]: 7.59 µM
TGI [39]: 20.4 µM
GI50 [40]: 10.5 µM
TGI [40]: 27.1 µM
GI50 [41]: 7.76 µM
TGI [41]: 21 µM
GI50 [42]: 14.3 µM
TGI [42]: 27.7 µM
GI50 [43]: 16.9 µM
TGI [43]: 38.5 µM
GI50 [44]: 1.45 µM
TGI [44]: 2.79 µM
GI50 [45]: 14.6 µM
TGI [45]: 27.8 µM
GI50 [46]: 1.72 µM
TGI [46]: 3.11 µM
GI50 [59]: 10.1 µM
TGI [59]: 24.1 µM
GI50 [47]: 12.5 µM
TGI [47]: 30 µM
GI50 [48]: 2.82 µM
TGI [48]: 9.83 µM
GI50 [49]: 12 µM
TGI [49]: 37.5 µM
GI50 [51]: 9.8 µM
TGI [51]: 23.1 µM
GI50 [52]: 17 µM
TGI [52]: 31.7 µM
GI50 [53]: 5.57 µM
TGI [53]: 19.1 µM
GI50 [54]: 1.83 µM
TGI [54]: 3.37 µM
GI50 [55]: 3.39 µM
TGI [55]: 10 µM
